These results are taken from publication PMC6407917, “Identification of GSK3186899/DDD853651 as a Preclinical Development Candidate for the Treatment of Visceral Leishmaniasis” (Journal of Medicinal Chemistry, 2018).

pIC50: −log10 of the molar value. Bounds are passed on as bounds.

A word on the pIC50: it is −log10 of the IC50, conventionally taken in molar units. A low value points to a high IC50.

Holding throughout (assay): biochemical
Parameters in all cases: species or system HEK293/K-562/placenta mixed human extract; Kinobeads chemoproteomic competition binding, quantified by TMT LC-MS/MS, dose response up to 20 uM

The target in test [1] is KDR (Homo sapiens, UniProt P35968).
Test [2] concerns the target CDK10 (Homo sapiens, UniProt Q15131).
Test [3] deals with MYLK3 (Homo sapiens, UniProt Q32MK0).
Test [4] concerns the target PRKDC (Homo sapiens, UniProt P78527).
The target of test [5] is PRKCQ (Homo sapiens, UniProt Q04759).
For test [6], the target named is MARK2 (Homo sapiens, UniProt Q7KZI7).
Chain of MARK2 (Q7KZI7 whole entry): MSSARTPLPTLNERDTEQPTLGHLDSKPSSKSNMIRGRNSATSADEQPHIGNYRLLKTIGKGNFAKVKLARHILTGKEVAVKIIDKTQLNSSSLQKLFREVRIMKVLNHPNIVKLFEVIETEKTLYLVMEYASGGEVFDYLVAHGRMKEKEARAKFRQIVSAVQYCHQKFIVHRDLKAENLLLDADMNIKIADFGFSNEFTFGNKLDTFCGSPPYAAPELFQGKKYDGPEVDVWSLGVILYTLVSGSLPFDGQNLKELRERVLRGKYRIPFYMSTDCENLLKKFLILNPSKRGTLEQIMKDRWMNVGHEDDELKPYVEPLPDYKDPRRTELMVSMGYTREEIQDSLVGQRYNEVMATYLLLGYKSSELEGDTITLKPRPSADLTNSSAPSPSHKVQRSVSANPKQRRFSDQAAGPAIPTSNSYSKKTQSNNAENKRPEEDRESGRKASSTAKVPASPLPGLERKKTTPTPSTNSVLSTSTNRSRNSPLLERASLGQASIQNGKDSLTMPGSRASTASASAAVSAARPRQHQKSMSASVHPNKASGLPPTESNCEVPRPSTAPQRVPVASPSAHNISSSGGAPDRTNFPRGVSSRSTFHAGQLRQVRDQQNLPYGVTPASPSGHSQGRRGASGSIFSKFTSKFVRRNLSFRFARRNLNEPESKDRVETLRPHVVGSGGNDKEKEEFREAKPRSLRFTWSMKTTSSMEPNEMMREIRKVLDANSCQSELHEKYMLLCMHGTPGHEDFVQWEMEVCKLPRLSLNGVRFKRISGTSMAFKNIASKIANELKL
Test [7] addresses CIT (Homo sapiens, UniProt O14578).

Chain of PRKDC (P78527 whole entry): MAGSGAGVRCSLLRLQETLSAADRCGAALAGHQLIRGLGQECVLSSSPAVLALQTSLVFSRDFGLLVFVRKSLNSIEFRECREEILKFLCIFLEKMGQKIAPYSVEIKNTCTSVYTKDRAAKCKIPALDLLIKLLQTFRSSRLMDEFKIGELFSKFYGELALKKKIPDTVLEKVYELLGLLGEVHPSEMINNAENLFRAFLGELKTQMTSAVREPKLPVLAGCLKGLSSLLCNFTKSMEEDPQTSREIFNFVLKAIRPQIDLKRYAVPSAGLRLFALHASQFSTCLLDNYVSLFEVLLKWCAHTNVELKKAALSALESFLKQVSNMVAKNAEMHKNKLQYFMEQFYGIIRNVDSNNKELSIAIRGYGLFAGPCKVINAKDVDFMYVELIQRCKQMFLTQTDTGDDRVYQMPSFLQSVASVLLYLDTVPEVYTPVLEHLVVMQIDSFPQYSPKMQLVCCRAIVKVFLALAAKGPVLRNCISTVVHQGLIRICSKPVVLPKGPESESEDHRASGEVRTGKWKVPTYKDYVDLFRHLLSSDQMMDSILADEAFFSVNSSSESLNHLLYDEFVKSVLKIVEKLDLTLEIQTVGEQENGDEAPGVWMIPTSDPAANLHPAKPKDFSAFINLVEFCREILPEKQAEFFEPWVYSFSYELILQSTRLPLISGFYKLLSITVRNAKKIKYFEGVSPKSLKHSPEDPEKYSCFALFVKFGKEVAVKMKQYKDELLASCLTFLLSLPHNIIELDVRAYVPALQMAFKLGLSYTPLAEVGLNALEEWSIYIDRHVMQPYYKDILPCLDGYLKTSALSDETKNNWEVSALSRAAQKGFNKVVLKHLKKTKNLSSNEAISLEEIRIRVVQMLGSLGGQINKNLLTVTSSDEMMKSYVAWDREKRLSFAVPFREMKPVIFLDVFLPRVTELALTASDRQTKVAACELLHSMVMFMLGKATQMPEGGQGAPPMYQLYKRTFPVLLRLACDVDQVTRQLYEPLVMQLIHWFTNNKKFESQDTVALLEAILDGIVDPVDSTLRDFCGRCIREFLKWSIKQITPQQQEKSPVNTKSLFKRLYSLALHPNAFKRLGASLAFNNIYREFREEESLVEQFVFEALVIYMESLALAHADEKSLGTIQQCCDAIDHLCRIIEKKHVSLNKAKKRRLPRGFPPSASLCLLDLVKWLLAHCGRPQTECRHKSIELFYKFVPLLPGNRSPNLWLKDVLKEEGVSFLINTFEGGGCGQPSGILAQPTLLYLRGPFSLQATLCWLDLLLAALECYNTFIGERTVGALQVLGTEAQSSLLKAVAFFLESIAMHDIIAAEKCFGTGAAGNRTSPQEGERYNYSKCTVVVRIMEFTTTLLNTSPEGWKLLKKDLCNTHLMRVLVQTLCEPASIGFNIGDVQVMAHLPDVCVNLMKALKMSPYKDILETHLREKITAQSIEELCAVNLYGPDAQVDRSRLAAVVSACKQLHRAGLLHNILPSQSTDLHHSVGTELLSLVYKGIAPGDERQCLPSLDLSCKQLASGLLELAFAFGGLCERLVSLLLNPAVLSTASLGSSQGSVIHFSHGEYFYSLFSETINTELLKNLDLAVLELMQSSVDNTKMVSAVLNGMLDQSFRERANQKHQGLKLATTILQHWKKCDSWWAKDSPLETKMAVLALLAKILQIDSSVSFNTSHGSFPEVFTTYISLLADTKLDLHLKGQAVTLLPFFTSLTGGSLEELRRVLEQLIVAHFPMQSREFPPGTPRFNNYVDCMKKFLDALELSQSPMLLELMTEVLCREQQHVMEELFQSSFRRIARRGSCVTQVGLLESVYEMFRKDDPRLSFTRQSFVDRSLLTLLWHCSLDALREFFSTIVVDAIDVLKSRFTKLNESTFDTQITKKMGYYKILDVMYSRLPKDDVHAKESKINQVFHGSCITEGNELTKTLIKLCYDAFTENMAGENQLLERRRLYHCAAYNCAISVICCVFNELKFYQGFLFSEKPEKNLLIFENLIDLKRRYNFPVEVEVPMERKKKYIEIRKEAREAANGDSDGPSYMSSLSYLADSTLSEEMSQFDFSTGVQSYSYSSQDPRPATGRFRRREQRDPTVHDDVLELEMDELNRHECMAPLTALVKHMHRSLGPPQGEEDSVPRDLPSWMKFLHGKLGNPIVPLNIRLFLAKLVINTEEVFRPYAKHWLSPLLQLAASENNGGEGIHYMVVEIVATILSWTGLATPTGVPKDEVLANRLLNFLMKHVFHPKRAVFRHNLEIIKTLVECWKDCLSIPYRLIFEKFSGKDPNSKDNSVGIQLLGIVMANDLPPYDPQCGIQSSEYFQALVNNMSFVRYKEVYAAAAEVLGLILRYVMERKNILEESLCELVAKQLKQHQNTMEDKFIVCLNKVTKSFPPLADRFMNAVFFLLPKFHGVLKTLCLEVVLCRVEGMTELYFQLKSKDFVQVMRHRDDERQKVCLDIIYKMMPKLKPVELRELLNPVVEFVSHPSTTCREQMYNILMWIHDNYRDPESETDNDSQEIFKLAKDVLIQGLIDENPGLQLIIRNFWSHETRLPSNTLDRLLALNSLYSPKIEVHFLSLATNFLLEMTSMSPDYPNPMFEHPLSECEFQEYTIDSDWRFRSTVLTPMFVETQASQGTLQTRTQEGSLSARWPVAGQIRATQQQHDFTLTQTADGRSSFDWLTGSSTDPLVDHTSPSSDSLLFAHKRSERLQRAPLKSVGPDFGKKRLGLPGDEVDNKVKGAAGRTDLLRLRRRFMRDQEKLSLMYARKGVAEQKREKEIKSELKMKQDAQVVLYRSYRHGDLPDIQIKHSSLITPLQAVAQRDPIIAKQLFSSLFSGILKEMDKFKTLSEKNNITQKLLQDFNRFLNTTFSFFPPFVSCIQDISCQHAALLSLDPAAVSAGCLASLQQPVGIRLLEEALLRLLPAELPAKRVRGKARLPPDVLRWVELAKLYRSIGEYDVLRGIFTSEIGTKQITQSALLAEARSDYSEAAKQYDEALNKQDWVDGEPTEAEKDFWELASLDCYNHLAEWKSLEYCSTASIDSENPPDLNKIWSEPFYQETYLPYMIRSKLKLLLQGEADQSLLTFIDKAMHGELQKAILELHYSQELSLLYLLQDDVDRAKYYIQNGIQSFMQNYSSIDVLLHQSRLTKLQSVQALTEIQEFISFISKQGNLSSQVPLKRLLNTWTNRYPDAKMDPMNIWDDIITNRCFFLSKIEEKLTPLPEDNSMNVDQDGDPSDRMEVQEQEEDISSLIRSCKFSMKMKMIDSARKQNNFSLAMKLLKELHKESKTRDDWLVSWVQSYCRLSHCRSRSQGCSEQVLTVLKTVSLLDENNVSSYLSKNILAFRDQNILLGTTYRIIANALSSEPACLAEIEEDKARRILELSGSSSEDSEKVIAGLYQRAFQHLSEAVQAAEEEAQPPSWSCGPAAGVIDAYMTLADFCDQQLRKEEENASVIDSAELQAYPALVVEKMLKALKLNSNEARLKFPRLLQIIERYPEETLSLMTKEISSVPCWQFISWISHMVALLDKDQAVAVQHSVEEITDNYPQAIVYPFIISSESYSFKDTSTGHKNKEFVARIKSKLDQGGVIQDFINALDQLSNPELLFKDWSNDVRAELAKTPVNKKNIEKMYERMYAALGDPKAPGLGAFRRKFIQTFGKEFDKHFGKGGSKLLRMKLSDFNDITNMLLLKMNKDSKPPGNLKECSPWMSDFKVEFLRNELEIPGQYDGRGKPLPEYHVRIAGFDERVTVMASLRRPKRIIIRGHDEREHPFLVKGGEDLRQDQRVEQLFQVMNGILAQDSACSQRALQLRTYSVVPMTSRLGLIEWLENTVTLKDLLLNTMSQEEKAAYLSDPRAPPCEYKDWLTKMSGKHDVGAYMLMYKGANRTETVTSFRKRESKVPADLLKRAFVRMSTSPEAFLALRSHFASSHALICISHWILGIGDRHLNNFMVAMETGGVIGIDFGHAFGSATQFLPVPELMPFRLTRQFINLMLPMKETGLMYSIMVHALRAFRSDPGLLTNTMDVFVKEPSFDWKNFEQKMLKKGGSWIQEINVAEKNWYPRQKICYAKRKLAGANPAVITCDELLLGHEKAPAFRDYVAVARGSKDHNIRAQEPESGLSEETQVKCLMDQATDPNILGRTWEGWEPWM

On to `COc1ccccc1-c1n[nH]c2nc(N[C@H]3CC[C@H](NS(=O)(=O)CCC(F)(F)F)CC3)nc(OC)c12` [compound 31, 3,3,3-Trifluoro-N-(trans-4-((4-methoxy-3-(2-methoxyphenyl)-1H-pyrazolo[3,4-d]pyrimidin-6-yl)amino)cyclohexyl)propane-1-sulfonamide], for which the pIC50 in test [1] is at most 4.70; in test [2] it was 5.59; in test [3], at most 4.70; in test [4] it was at most 4.70; in test [5], at most 4.70; in test [6] it was at most 4.70. This compound had a pIC50 in test [7] of at most 4.70.
